Data taken from ChEMBL document CHEMBL1201862, “PubChem BioAssay data set” (2004).
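96-well plates; 48 h exposure; 5 concentrations. Endpoints by linear interpolation between flanking doses. Not reached: highest tested concentration assigned. GI50 marks 50% less growth.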 Active and inactive are the calls of the source. No stated cut-off is given here; in the data, active = GI50 up to about 1.1 µM and inactive = higher.

Assays:
Test in all cases: DTP human tumour cell line panel, 48 h
786-0 = tested on: 786-0
A498 = tested on: A498
ACHN = tested on: ACHN
HT-29 = tested on: HT-29
Hs-578T = tested on: Hs-578T
IGROV-1 = tested on: IGROV-1
K562 = tested on: K562
MCF7 = tested on: MCF7
NCI-H226 = tested on: NCI-H226
NCI-H522 = tested on: NCI-H522
NCI/ADR-RES = tested on: NCI/ADR-RES
OVCAR-3 = tested on: OVCAR-3
OVCAR-4 = tested on: OVCAR-4
OVCAR-5 = tested on: OVCAR-5
OVCAR-8 = tested on: OVCAR-8
SF-268 = tested on: SF-268
SK-MEL-5 = tested on: SK-MEL-5
SK-OV-3 = tested on: SK-OV-3
HOP-92 = tested on: HOP-92
SW-620 = tested on: SW-620

Measured: GI50

Cc1cc(N(CCC#N)CCC#N)ccc1C(/N=N/c1ccc(C(=O)O)cc1)=N\NC(=O)c1ccccc1
inactive: 786-0 41.3 µM | A498 22.3 µM | ACHN 59.7 µM | HT-29 17.3 µM | Hs-578T 14.4 µM | IGROV-1 50.2 µM | K562 12.7 µM | MCF7 22.8 µM | NCI-H226 40.9 µM | NCI-H522 13.2 µM | NCI/ADR-RES 66.8 µM | OVCAR-3 > 10 µM | OVCAR-4 > 100 µM | OVCAR-5 > 100 µM | OVCAR-8 28.1 µM | SF-268 53.8 µM | SK-MEL-5 19.5 µM | SK-OV-3 49.2 µM

O=C1Nc2cccc(Cl)c2/C1=C\c1c(Cl)nc2n1CCS2
inactive: 786-0 > 100 µM | A498 > 100 µM | ACHN > 100 µM | HOP-92 56.9 µM | HT-29 > 100 µM | Hs-578T > 100 µM | IGROV-1 > 100 µM | K562 > 100 µM | MCF7 8.43 µM | NCI-H522 > 100 µM | NCI/ADR-RES > 100 µM | OVCAR-3 > 100 µM | OVCAR-5 > 100 µM | OVCAR-8 > 100 µM | SF-268 > 100 µM | SK-MEL-5 > 100 µM | SK-OV-3 > 100 µM | SW-620 > 100 µM

N#Cc1c(-c2ccc(Cl)cc2Cl)nc2[nH]nc(S)n2c1=O
inactive: 786-0 > 100 µM | A498 > 100 µM | ACHN > 100 µM | HOP-92 > 100 µM | HT-29 > 100 µM | Hs-578T > 100 µM | IGROV-1 > 100 µM | MCF7 > 100 µM | NCI-H226 > 100 µM | NCI-H522 > 100 µM | NCI/ADR-RES > 100 µM | OVCAR-4 > 100 µM | OVCAR-5 > 100 µM | OVCAR-8 > 100 µM | SF-268 > 100 µM | SK-MEL-5 > 100 µM | SK-OV-3 > 100 µM | SW-620 > 100 µM

Clc1nc(NCCc2ccccc2)c2ncn(-c3ccccc3)c2n1
inactive: 786-0 16.9 µM | A498 17.3 µM | ACHN 29.4 µM | HT-29 16.2 µM | Hs-578T 24.4 µM | IGROV-1 40.8 µM | K562 25.5 µM | MCF7 24.9 µM | NCI-H226 24.1 µM | NCI-H522 16 µM | NCI/ADR-RES 20.6 µM | OVCAR-3 25.2 µM | OVCAR-4 14.1 µM | OVCAR-5 37.9 µM | OVCAR-8 28.4 µM | SF-268 36.5 µM | SK-MEL-5 18.5 µM | SK-OV-3 20.4 µM | SW-620 29.3 µM

COc1cc2c(cc1C)NC(=O)/C2=C/c1c(Cl)[nH]c2ccccc12
inactive: 786-0 6.21 µM | A498 4.57 µM | ACHN 10.6 µM | HOP-92 11.2 µM | HT-29 3.94 µM | Hs-578T 3.26 µM | IGROV-1 3.3 µM | K562 3.83 µM | MCF7 3.8 µM | NCI-H522 6.75 µM | NCI/ADR-RES 2.62 µM | OVCAR-3 2.26 µM | OVCAR-5 7.87 µM | OVCAR-8 11.8 µM | SF-268 4.22 µM | SK-MEL-5 3.15 µM | SK-OV-3 1.47 µM | SW-620 4.56 µM

COc1ccc(NC(=O)CC(=O)n2nc(C)c(/N=N/c3cccc(C)c3)c2C)cc1
inactive: 786-0 > 100 µM | A498 56.6 µM | ACHN > 100 µM | HOP-92 69.8 µM | HT-29 > 100 µM | Hs-578T > 100 µM | MCF7 > 100 µM | NCI-H226 > 100 µM | NCI-H522 > 100 µM | NCI/ADR-RES > 100 µM | OVCAR-3 > 100 µM | OVCAR-4 > 100 µM | OVCAR-5 > 100 µM | OVCAR-8 > 100 µM | SF-268 > 100 µM | SK-MEL-5 > 100 µM | SK-OV-3 18.6 µM | SW-620 > 100 µM
